The values that follow come from patent US10344060B2 (priority 2013, dated 2019).

A value given as a limit tells only on which side of the number the result lay.

What all share (assay): cell-based
One assay deals with hNav1.3 (Homo sapiens, UniProt Q9NY46). As to conditions: IonWorks Quattro; Table 6; read-out: IC50 (μM) Nav1.3.
The next assay has as its target hNav1.7 (Homo sapiens, UniProt Q15858). As to conditions: read-out: IC50 (μM) Nav1.7.
The target in a further assay is hNav1.5 (Homo sapiens, UniProt Q14524). Conditions: IonWorks Quattro; Table 6; read-out: IC50 (μM) Nav1.5.
In the next assay the target is hNav1.4 (Homo sapiens, UniProt P35499). In kind it is cell-based. As to conditions: Table 6; for IC50: IonWorks Quattro, read-out: IC50 (μM) Nav1.4; for Nav1.4/Nav1.7: ratio of IonWorks Quattro IC50 values.
Chain of hNav1.4 (P35499 whole entry): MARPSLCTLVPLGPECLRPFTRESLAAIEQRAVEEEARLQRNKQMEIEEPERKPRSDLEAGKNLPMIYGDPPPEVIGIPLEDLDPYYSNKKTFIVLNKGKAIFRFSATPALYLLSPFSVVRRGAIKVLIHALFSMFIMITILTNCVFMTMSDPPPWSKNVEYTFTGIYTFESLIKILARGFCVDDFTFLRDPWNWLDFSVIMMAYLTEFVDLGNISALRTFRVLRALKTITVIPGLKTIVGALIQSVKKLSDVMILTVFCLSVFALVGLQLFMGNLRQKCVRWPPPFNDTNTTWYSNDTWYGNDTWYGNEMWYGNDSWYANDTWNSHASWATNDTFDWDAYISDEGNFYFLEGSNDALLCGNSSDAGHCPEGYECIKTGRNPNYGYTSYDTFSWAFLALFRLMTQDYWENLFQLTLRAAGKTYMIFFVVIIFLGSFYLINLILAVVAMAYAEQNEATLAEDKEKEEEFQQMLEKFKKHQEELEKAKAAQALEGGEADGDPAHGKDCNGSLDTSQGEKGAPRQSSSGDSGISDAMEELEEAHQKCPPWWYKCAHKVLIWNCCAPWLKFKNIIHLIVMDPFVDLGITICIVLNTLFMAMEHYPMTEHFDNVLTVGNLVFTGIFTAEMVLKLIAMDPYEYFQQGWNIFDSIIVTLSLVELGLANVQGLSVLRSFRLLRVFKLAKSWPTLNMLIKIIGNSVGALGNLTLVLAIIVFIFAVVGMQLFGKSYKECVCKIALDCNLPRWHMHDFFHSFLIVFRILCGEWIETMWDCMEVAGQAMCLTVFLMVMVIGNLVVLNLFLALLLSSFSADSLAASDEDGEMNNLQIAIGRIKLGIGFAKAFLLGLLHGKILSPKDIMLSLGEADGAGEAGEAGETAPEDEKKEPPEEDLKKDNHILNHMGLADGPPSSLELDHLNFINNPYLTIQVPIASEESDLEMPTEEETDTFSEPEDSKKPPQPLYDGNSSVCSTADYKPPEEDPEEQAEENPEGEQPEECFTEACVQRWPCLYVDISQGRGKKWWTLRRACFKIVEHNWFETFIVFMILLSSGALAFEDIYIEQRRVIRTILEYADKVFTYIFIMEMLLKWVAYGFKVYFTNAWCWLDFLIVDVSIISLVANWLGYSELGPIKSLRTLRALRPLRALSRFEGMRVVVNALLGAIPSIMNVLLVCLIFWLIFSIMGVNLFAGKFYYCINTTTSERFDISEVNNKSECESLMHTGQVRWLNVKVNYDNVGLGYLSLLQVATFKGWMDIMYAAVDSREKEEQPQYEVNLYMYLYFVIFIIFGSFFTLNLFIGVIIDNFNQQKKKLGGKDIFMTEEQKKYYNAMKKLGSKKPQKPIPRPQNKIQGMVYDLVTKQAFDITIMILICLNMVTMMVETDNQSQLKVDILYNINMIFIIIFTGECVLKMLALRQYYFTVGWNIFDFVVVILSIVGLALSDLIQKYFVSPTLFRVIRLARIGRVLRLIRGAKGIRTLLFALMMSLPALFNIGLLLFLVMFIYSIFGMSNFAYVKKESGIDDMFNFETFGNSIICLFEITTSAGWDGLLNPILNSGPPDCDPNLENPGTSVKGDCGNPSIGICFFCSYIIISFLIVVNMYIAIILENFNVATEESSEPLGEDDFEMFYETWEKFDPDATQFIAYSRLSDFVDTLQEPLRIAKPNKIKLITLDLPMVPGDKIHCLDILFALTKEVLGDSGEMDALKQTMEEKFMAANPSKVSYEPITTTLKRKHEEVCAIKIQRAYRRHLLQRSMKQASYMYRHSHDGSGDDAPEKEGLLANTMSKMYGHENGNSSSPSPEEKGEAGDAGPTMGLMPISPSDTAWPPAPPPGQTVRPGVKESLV

Chain of hNav1.5 (Q14524 whole entry): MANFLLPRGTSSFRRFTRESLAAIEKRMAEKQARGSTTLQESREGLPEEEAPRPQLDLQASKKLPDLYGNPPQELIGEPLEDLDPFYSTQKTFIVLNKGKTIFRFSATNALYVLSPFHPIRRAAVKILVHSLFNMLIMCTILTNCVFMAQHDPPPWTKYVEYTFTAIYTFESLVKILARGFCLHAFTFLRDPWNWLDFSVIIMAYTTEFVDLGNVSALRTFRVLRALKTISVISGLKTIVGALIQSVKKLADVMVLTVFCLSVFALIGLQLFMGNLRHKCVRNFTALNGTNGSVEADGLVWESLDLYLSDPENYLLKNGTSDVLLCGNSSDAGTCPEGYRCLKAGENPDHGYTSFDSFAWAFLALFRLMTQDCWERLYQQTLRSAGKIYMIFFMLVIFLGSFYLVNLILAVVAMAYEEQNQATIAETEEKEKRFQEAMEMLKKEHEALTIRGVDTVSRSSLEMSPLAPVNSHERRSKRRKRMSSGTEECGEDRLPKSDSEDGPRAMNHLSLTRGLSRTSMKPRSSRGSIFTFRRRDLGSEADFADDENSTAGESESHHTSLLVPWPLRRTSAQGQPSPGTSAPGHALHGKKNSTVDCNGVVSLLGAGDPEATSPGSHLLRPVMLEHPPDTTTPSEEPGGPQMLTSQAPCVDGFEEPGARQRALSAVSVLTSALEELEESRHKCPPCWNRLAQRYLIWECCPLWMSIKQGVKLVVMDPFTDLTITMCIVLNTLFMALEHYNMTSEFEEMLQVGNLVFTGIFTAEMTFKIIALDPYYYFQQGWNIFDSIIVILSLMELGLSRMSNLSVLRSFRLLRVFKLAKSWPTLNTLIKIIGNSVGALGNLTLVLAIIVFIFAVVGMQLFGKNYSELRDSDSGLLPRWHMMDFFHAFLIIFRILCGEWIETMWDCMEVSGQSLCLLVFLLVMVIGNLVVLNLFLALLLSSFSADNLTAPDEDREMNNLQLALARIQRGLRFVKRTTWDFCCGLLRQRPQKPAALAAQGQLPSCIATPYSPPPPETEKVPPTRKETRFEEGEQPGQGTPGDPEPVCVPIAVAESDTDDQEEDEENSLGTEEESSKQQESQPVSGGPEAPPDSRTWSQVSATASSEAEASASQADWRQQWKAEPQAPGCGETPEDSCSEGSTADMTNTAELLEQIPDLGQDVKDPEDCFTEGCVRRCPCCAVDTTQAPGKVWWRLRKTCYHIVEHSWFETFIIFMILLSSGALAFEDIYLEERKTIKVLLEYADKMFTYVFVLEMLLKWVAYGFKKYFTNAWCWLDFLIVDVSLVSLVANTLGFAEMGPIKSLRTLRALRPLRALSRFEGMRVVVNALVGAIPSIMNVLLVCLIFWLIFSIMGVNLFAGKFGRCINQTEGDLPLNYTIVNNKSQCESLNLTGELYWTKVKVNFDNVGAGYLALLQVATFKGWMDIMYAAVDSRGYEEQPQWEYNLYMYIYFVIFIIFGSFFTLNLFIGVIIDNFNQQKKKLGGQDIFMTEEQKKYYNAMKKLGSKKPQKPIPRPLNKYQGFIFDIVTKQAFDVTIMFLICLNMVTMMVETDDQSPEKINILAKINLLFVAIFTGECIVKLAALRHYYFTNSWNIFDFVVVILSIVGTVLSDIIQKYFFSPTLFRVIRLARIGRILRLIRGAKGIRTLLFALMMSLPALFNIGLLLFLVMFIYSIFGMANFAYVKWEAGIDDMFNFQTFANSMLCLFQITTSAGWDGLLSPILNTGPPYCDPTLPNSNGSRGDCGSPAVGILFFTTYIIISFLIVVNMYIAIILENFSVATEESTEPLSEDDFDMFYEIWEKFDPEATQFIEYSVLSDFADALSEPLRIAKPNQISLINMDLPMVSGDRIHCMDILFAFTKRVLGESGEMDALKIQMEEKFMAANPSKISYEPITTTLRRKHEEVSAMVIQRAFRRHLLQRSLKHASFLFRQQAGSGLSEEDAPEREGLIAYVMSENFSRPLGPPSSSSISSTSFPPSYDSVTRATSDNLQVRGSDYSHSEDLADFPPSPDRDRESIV

For the molecule `CC[C@H](C)[C@H](NC(=O)[C@@H](NC(=O)[C@H](CCCCN)NC(=O)[C@H](CCCNC(=N)N)NC(=O)[C@@H]1CSSC[C@@H]2NC(=O)[C@H](C)NC(=O)[C@H](C)NC(=O)[C@H](CCCCN)NC(=O)[C@H](CO)NC(=O)[C@H](CC(=O)O)NC(=O)[C@@H]3CSSC[C@H](NC(=O)[C@H](CCCNC(=N)N)NC(=O)[C@H](CC(C)C)NC(=O)CNC(=O)[C@H](CCC(=O)O)NC(=O)[C@H](CSSC[C@H](NC(=O)[C@@H](N)Cc4ccc(O)cc4)C(=O)N[C@@H](CCC(N)=O)C(=O)N[C@@H](CCCCN)C(=O)N[C@@H](Cc4c[nH]c5ccccc45)C(=O)N[C@@H](CCSC)C(=O)N[C@@H](Cc4c[nH]c5ccccc45)C(=O)N[C@@H]([C@@H](C)O)C(=O)N3)NC2=O)C(=O)N[C@@H](CCCCN)C(=O)N[C@@H](CC(C)C)C(=O)N[C@@H](Cc2c[nH]c3ccccc23)C(=O)N1)[C@@H](C)CC)C(N)=O` [compound 13], the IC50 at hNav1.3 was 0.3 µM; on hNav1.7, 0.079 µM; at hNav1.5, above 5 µM; on hNav1.4, 0.57 µM. The Nav1.4/Nav1.7 at hNav1.4 worked out at 7.
As for `CC[C@H](C)[C@H](NC(=O)[C@@H](NC(=O)[C@H](CCCCN)NC(=O)[C@H](CCCNC(=N)N)NC(=O)[C@@H]1CSSC[C@@H]2NC(=O)[C@H](C)NC(=O)[C@H](CCCNC(=N)N)NC(=O)[C@H](CCCCN)NC(=O)[C@H](CO)NC(=O)[C@H](CC(=O)O)NC(=O)[C@@H]3CSSC[C@H](NC(=O)[C@H](CCCNC(=N)N)NC(=O)[C@H](CC(C)C)NC(=O)CNC(=O)[C@H](C)NC(=O)[C@H](CSSC[C@H](NC(=O)[C@@H](N)Cc4ccc(O)cc4)C(=O)N[C@@H](CCC(N)=O)C(=O)N[C@@H](CCCCN)C(=O)N[C@@H](Cc4c[nH]c5ccccc45)C(=O)N[C@@H](CCSC)C(=O)N[C@@H](Cc4c[nH]c5ccccc45)C(=O)N[C@@H]([C@@H](C)O)C(=O)N3)NC2=O)C(=O)N[C@@H](CCCCN)C(=O)N[C@@H](CC(C)C)C(=O)N[C@@H](Cc2c[nH]c3ccccc23)C(=O)N1)[C@@H](C)CC)C(N)=O` [compound 14], the IC50 on hNav1.3 turned out to be 0.08 µM; at hNav1.7 it was 0.008 µM; at hNav1.5, 2 µM; on hNav1.4, 0.06 µM. Further, the Nav1.4/Nav1.7 on hNav1.4 amounted to 8.
With `CC[C@H](C)[C@H](NC(=O)[C@@H](NC(=O)[C@H](CCCCN)NC(=O)[C@H](CCCNC(=N)N)NC(=O)[C@@H]1CSSC[C@@H]2NC(=O)[C@H](C)NC(=O)[C@H](CCCNC(=N)N)NC(=O)[C@H](CCCCN)NC(=O)[C@H](CO)NC(=O)[C@H](CC(=O)O)NC(=O)[C@@H]3CSSC[C@H](NC(=O)[C@H](CCCNC(=N)N)NC(=O)[C@H](CC(C)C)NC(=O)[C@H](C)NC(=O)[C@H](CCC(=O)O)NC(=O)[C@H](CSSC[C@H](NC(=O)[C@@H](N)Cc4ccc(O)cc4)C(=O)N[C@@H](CCC(N)=O)C(=O)N[C@@H](CCCCN)C(=O)N[C@@H](Cc4c[nH]c5ccccc45)C(=O)N[C@@H](CCSC)C(=O)N[C@@H](Cc4c[nH]c5ccccc45)C(=O)N[C@@H]([C@@H](C)O)C(=O)N3)NC2=O)C(=O)N[C@@H](CCCCN)C(=O)N[C@@H](CC(C)C)C(=O)N[C@@H](Cc2c[nH]c3ccccc23)C(=O)N1)[C@@H](C)CC)C(N)=O` [compound 15], the IC50 on hNav1.3 is 0.24 µM; on hNav1.7, 0.04 µM; on hNav1.5, above 5 µM; at hNav1.4, 0.26 µM. The Nav1.4/Nav1.7 on hNav1.4 stood at 7.
Regarding `CC[C@H](C)[C@H](NC(=O)[C@@H](NC(=O)[C@H](CCCCN)NC(=O)[C@H](CCCNC(=N)N)NC(=O)[C@@H]1CSSC[C@@H]2NC(=O)[C@H](C)NC(=O)[C@H](CCCNC(=N)N)NC(=O)[C@H](CCCCN)NC(=O)[C@H](CO)NC(=O)[C@H](CC(=O)O)NC(=O)[C@@H]3CSSC[C@H](NC(=O)[C@H](CCCNC(=N)N)NC(=O)[C@H](CC(C)C)NC(=O)CNC(=O)[C@H](CCC(=O)O)NC(=O)[C@H](CSSC[C@H](NC(=O)[C@@H](N)Cc4ccc(O)cc4)C(=O)N[C@@H](CCC(N)=O)C(=O)N[C@@H](CCCCN)C(=O)N[C@@H](Cc4c[nH]c5ccccc45)C(=O)N[C@@H](CCSC)C(=O)N[C@@H](Cc4c[nH]c5ccccc45)C(=O)N[C@@H]([C@@H](C)O)C(=O)N3)NC2=O)C(=O)N[C@@H](C)C(=O)N[C@@H](CC(C)C)C(=O)N[C@@H](Cc2c[nH]c3ccccc23)C(=O)N1)[C@@H](C)CC)C(N)=O` [compound 18], the IC50 is 0.52 µM on hNav1.3, 0.062 µM at hNav1.7, above 5 µM at hNav1.5 and 0.41 µM at hNav1.4. Further, the Nav1.4/Nav1.7 at hNav1.4 is reported as 7.
On to `CC[C@H](C)[C@H](NC(=O)[C@@H](NC(=O)[C@H](CCCCN)NC(=O)[C@H](CCCNC(=N)N)NC(=O)[C@@H]1CSSC[C@@H]2NC(=O)[C@H](C)NC(=O)[C@H](CCCNC(=N)N)NC(=O)[C@H](CCCCN)NC(=O)[C@H](CO)NC(=O)[C@H](CC(=O)O)NC(=O)[C@@H]3CSSC[C@H](NC(=O)[C@H](CCCNC(=N)N)NC(=O)[C@H](CC(C)C)NC(=O)CNC(=O)[C@H](CCC(=O)O)NC(=O)[C@H](CSSC[C@H](NC(=O)[C@@H](N)Cc4ccc(O)cc4)C(=O)N[C@@H](CCC(N)=O)C(=O)N[C@@H](CCCCN)C(=O)N[C@@H](Cc4c[nH]c5ccccc45)C(=O)N[C@@H](CCSC)C(=O)N[C@@H](Cc4c[nH]c5ccccc45)C(=O)N[C@@H]([C@@H](C)O)C(=O)N3)NC2=O)C(=O)N[C@@H](CCCCN)C(=O)N[C@@H](C)C(=O)N[C@@H](Cc2c[nH]c3ccccc23)C(=O)N1)[C@@H](C)CC)C(N)=O` [compound 19], for which the IC50 is 0.44 µM at hNav1.3, 0.3 µM at hNav1.7, above 5 µM on hNav1.5 and 0.34 µM on hNav1.4. Besides, at hNav1.4, the Nav1.4/Nav1.7 is recorded as 1.
On to `CC[C@H](C)[C@H](NC(=O)[C@H](C)NC(=O)[C@H](CCCCN)NC(=O)[C@H](CCCNC(=N)N)NC(=O)[C@@H]1CSSC[C@@H]2NC(=O)[C@H](C)NC(=O)[C@H](CCCNC(=N)N)NC(=O)[C@H](CCCCN)NC(=O)[C@H](CO)NC(=O)[C@H](CC(=O)O)NC(=O)[C@@H]3CSSC[C@H](NC(=O)[C@H](CCCNC(=N)N)NC(=O)[C@H](CC(C)C)NC(=O)CNC(=O)[C@H](CCC(=O)O)NC(=O)[C@H](CSSC[C@H](NC(=O)[C@@H](N)Cc4ccc(O)cc4)C(=O)N[C@@H](CCC(N)=O)C(=O)N[C@@H](CCCCN)C(=O)N[C@@H](Cc4c[nH]c5ccccc45)C(=O)N[C@@H](CCSC)C(=O)N[C@@H](Cc4c[nH]c5ccccc45)C(=O)N[C@@H]([C@@H](C)O)C(=O)N3)NC2=O)C(=O)N[C@@H](CCCCN)C(=O)N[C@@H](CC(C)C)C(=O)N[C@@H](Cc2c[nH]c3ccccc23)C(=O)N1)C(N)=O` [compound 23], for which the IC50 on hNav1.3 was 0.25 µM; on hNav1.7, 0.03 µM; on hNav1.5 it was above 5 µM; on hNav1.4 it was 0.29 µM. For the same molecule, the Nav1.4/Nav1.7 on hNav1.4 stood at 10.
For the molecule `CC[C@H](C)[C@H](NC(=O)[C@H](CCCCN)NC(=O)[C@H](CCCNC(=N)N)NC(=O)[C@@H]1CSSC[C@@H]2NC(=O)[C@H](C)NC(=O)[C@H](CCCNC(=N)N)NC(=O)[C@H](CCCCN)NC(=O)[C@H](CO)NC(=O)[C@H](CC(=O)O)NC(=O)[C@@H]3CSSC[C@H](NC(=O)[C@H](CCCNC(=N)N)NC(=O)[C@H](CC(C)C)NC(=O)CNC(=O)[C@H](CCC(=O)O)NC(=O)[C@H](CSSC[C@H](NC(=O)[C@@H](N)Cc4ccc(O)cc4)C(=O)N[C@@H](CCC(N)=O)C(=O)N[C@@H](CCCCN)C(=O)N[C@@H](Cc4c[nH]c5ccccc45)C(=O)N[C@@H](CCSC)C(=O)N[C@@H](Cc4c[nH]c5ccccc45)C(=O)N[C@@H]([C@@H](C)O)C(=O)N3)NC2=O)C(=O)N[C@@H](CCCCN)C(=O)N[C@@H](CC(C)C)C(=O)N[C@@H](Cc2c[nH]c3ccccc23)C(=O)N1)C(=O)N[C@@H](C)C(N)=O` [compound 24], the IC50 at hNav1.3 was 0.45 µM; at hNav1.7, 0.053 µM; at hNav1.5, above 5 µM; on hNav1.4, 0.27 µM. Further, the Nav1.4/Nav1.7 on hNav1.4 came to 5.
As to `CC[C@H](C)[C@H](NC(=O)[C@@H](NC(=O)[C@H](CCCCN)NC(=O)[C@H](CCCNC(=N)N)NC(=O)[C@@H]1CSSC[C@@H]2NC(=O)[C@H](C)NC(=O)[C@H](CCCNC(=N)N)NC(=O)[C@H](CCCCN)NC(=O)[C@H](CO)NC(=O)[C@H](CC(=O)O)NC(=O)[C@@H]3CSSC[C@H](NC(=O)[C@H](CCCNC(=N)N)NC(=O)[C@H](CC(C)C)NC(=O)CNC(=O)[C@H](CCC(=O)O)NC(=O)[C@H](CSSC[C@H](NC(=O)[C@@H](N)Cc4cccc5ccccc45)C(=O)N[C@@H](CCC(N)=O)C(=O)N[C@@H](CCCCN)C(=O)N[C@@H](Cc4c[nH]c5ccccc45)C(=O)N[C@@H](CCSC)C(=O)N[C@@H](Cc4c[nH]c5ccccc45)C(=O)N[C@@H]([C@@H](C)O)C(=O)N3)NC2=O)C(=O)N[C@@H](CCCCN)C(=O)N[C@@H](CC(C)C)C(=O)N[C@@H](Cc2c[nH]c3ccccc23)C(=O)N1)[C@@H](C)CC)C(N)=O` [compound 25], the IC50 at hNav1.3 was determined as 0.07 µM; on hNav1.7 it was 0.008 µM; at hNav1.5 it was 2.3 µM; at hNav1.4, 0.09 µM. Besides, the Nav1.4/Nav1.7 at hNav1.4 is recorded as 10.
`CC[C@H](C)[C@H](NC(=O)[C@@H](NC(=O)[C@H](CCCCN)NC(=O)[C@H](CCCNC(=N)N)NC(=O)[C@@H]1CSSC[C@@H]2NC(=O)[C@H](C)NC(=O)[C@H](CCCNC(=N)N)NC(=O)[C@H](CCCCN)NC(=O)[C@H](CO)NC(=O)[C@H](CC(=O)O)NC(=O)[C@@H]3CSSC[C@H](NC(=O)[C@H](CCCNC(=N)N)NC(=O)[C@H](CC(C)C)NC(=O)CNC(=O)[C@H](CCC(=O)O)NC(=O)[C@H](CSSC[C@H](NC(=O)[C@@H](N)Cc4ccc(O)cc4)C(=O)N[C@@H](CCC(N)=O)C(=O)N[C@@H](CCCCN)C(=O)N[C@@H](Cc4c[nH]c5ccccc45)C(=O)N[C@@H](CCSC)C(=O)N[C@@H](Cc4c[nH]c5ccccc45)C(=O)N[C@@H]([C@@H](C)O)C(=O)N3)NC2=O)C(=O)N[C@@H](CCCCN)C(=O)N[C@@H](CC(C)C)C(=O)N[C@@H](Cc2cccc3ccccc23)C(=O)N1)[C@@H](C)CC)C(N)=O` [compound 43]: the IC50 was 0.46 µM on hNav1.3, 0.075 µM at hNav1.7, above 5 µM at hNav1.5 and 0.33 µM at hNav1.4. In addition, the Nav1.4/Nav1.7 on hNav1.4 is recorded as 4.
